# pIC50: −log10 of the molar value. Active and inactive are the calls of the source.
# Experiments:
# [1] = HeLa cell cytotoxicity, dose response, cytotoxicity control for MgcRacGAP inhibitor project (AID 624300); assay type: functional
# [2] = molecular target: T1, Kappa-type opioid receptor (Homo sapiens, UniProt P41145); assay type: functional
# Nonstructural protein 1 = Nonstructural protein 1 (Influenza A virus, UniProt Q194T2); assay type: functional, Influenza A virus (A/California/07/2009(H1N1))
# [3] = molecular target: T1, Kappa-type opioid receptor; assay type: functional; remark: listed apart in the source
# Beta-galactosidase = Beta-galactosidase (Escherichia coli, UniProt Q8VNN2); assay type: functional
# [4] = molecular target: Matrix metalloproteinase-14 (Homo sapiens, UniProt P50281); experiment: Dose Response confirmation of uHTS hits for a small molecule inhibitors of MT1-MMP activation in a fluorescence assay set 1.; assay type: functional
# [5] = molecular target: T2, Tyrosine-protein phosphatase non-receptor type 22 (Homo sapiens, UniProt Q9Y2R2); assay type: functional
# T2 sequence (Q9Y2R2 whole entry): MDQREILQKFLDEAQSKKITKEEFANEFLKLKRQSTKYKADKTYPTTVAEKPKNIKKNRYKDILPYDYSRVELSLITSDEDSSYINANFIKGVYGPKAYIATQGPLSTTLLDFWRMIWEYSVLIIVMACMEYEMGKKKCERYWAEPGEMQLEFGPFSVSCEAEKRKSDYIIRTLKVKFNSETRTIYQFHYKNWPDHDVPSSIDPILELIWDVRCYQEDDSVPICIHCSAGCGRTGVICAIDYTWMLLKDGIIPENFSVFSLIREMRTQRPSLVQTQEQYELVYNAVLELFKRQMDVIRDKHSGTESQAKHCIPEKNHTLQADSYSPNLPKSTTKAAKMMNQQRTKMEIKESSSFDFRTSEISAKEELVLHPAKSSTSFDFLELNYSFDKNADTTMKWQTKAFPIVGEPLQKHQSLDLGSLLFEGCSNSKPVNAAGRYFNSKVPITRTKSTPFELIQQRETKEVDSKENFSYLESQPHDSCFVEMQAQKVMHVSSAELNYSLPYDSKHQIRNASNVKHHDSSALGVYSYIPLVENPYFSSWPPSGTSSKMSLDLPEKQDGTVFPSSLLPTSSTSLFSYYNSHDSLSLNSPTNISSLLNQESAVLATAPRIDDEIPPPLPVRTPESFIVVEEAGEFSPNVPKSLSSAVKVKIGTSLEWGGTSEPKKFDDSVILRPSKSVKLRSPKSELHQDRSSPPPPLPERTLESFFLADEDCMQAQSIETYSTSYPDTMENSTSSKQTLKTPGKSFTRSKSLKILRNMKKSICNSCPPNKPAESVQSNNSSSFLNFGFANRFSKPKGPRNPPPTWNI
# [6] = molecular target: T3, Tyrosine-protein phosphatase non-receptor type 7 (Homo sapiens, UniProt P35236); assay type: functional
# T3 sequence (P35236 whole entry): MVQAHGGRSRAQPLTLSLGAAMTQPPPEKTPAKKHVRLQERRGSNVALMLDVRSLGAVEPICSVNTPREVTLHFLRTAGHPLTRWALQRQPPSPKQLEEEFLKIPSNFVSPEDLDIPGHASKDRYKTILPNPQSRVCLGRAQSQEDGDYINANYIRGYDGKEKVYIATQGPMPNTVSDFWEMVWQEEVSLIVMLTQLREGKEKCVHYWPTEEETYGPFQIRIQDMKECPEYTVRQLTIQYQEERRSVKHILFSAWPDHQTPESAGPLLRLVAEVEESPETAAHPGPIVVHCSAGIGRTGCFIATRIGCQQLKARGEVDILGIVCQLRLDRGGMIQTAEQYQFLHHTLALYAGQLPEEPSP
# [7] = molecular target: T2, Tyrosine-protein phosphatase non-receptor type 22; assay type: functional; remark: listed apart in the source
# [8] = molecular target: Intestinal-type alkaline phosphatase (Homo sapiens, UniProt P09923); experiment: inhibition of human intestinal alkaline phosphatase – biochemical, dose response (AID 488876); assay type: functional
# [9] = molecular target: T4, Alkaline phosphatase, tissue-nonspecific isozyme (Homo sapiens, UniProt P05186); experiment: TNAP enzyme inhibition by screening hits, dose response, selectivity assay for mouse IAP inhibitor project, biochemical, human TNAP, uHTS hits (AID 488906); assay type: functional
# T4 sequence (P05186 whole entry): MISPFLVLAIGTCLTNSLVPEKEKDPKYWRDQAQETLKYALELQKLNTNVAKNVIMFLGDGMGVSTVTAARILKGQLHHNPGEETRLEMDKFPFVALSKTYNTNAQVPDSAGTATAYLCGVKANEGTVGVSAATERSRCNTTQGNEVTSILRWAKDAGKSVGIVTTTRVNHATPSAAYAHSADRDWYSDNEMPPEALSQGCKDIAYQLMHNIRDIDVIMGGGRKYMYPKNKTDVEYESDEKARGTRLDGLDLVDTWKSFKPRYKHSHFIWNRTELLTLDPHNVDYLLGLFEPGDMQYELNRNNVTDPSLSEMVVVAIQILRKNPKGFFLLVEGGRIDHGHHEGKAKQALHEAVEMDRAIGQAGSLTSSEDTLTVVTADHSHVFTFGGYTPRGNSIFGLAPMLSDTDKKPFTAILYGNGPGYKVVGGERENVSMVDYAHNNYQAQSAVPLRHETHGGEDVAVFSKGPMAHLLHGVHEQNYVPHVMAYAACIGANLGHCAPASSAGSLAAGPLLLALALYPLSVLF
# [10] = molecular target: Intestinal-type alkaline phosphatase (Mus musculus, UniProt P24822); experiment: PubChem AID 488785; assay type: functional
# [11] = inhibitors of intracellular T. cruzi replication, confirmation, NIH3T3 host cells, beta-gal luminescence (AID 2044); assay type: functional, cell-based;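 also: intracellular parasites grown in NIH/3T3 mouse fibroblasts as host cells; luminescent beta-galactosidase reporter signal from transgenic T. cruzi replicating inside host cells; inhibitors lower the luminescence signal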
# [12] = cytotoxicity toward NIH3T3 fibroblasts, dose response, counter-screen, cell-based, ATP luminescence, mouse fibroblasts (AID 2010); assay type: functional;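 also: cells exposed to compound for about 90 hours before reading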
# [13] = molecular target: Photoreceptor-specific nuclear receptor (Homo sapiens, UniProt Q9Y5X4); assay type: functional;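 also: potency for compounds that break the NR2E3 corepressor complex and count as activators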
# [14] = molecular target: Peroxisome proliferator-activated receptor gamma/Nuclear receptor coactivator 3 (Homo sapiens, UniProt P37231); experiment: TR-FRET dose response biochemical High Throughput Screening assay for agonists of the steroid receptor coactivator 3 (SRC-3) recruitment by the peroxisome proliferator-activated receptor gamma (PPAR gamma): non-selective agonists. [Related pubchem assays: 1301 (Confirmation screen.), 1048 (Primary screen.)]; assay type: functional
# [15] = molecular target: Peroxisome proliferator-activated receptor gamma/Nuclear receptor coactivator 1 (Homo sapiens, UniProt P37231); experiment: TR-FRET dose response biochemical High Throughput Screening assay for agonists of the steroid receptor coactivator 1 (SRC-1) recruitment by the peroxisome proliferator-activated receptor gamma (PPAR gamma): non-selective agonists. [Related pubchem assays (depositor defined):AID1300, AID1808, AID504735, AID631]; assay type: protein assay
# [16] = molecular target: Peroxisome proliferator-activated receptor gamma/Nuclear receptor corepressor 2 (Homo sapiens, UniProt P37231+Q9Y618); assay type: functional
# [17] = molecular target: Peroxisome proliferator-activated receptor gamma/Nuclear receptor coactivator 2 (Homo sapiens, UniProt P37231); experiment: TR-FRET dose response biochemical High Throughput Screening assay for agonists of the steroid receptor coactivator 2 (SRC-2) recruitment by the peroxisome proliferator-activated receptor gamma (PPAR gamma): non-selective agonists. [Related pubchem assays: 1297, 1032 ]; assay type: functional
# [18] = molecular target: DNA dC->dU-editing enzyme APOBEC-3G (Homo sapiens, UniProt Q9HC16); experiment: Dose Response confirmation of small molecule APOBEC3G DNA Deaminase Inhibitors via a fluorescence-based single-stranded DNA deaminase assay. [Related pubchem assays (depositor defined):AID493012, AID493028]; assay type: functional
# [19] = molecular target: T5, Polyadenylate-binding protein 1 (Homo sapiens, UniProt P11940); experiment: PABP1 MLLE–PAM2 binding inhibitor potency, dose response, biochemical, fluorescence polarization, FITC-PAM2 peptide (AID 602259); assay type: functional; conditions: read-out: IC50_Mean
# [20] = molecular target: T5, Polyadenylate-binding protein 1; experiment: PABP1 MLLE–PAM2 interaction inhibitors, dose response, miRNA deadenylation inhibitor project, biochemical, fluorescence polarization, Cy5-PAM2 peptide, secondary (AID 602260); assay type: functional; conditions: read-out: IC50_Mean
# [21] = molecular target: Eukaryotic translation initiation factor 4E (Mus musculus, UniProt P63073); experiment: eIF4E–eIF4G protein interaction inhibitors, dose response, biochemical, TR-FRET (AID 855); assay type: functional;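 also: potency for disrupting eIF4E binding to eIF4GI seen as loss of FRET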
# [22] = molecular target: Mitogen-activated protein kinase 10 (Homo sapiens, UniProt P53779); experiment: Dose response biochemical screening assay for inhibitors of c-Jun N-Terminal Kinase 3 (JNK3). [Related pubchem assays: 746 ]
# INS1 = experiment: beta cell apoptosis inhibitors, cytokine rescue, dose response, luminescence, retest (AID 449756); assay type: functional, cell-based; conditions: Rattus norvegicus;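 also: cell death triggered by IL-1 beta plus TNF-alpha plus IFN-gamma mixture; protective hits raise ATP signal compared with cytokine alone wells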
# [23] = molecular target: Induced myeloid leukemia cell differentiation protein Mcl-1 (Homo sapiens, UniProt Q07820); assay type: functional
# [24] = molecular target: T6, Mannose-6-phosphate isomerase (Homo sapiens, UniProt P34949); experiment: human PMI inhibitors, high substrate, primary screen, biochemical, fluorescence intensity, high mannose 6-phosphate (AID 1220)
# T6 sequence (P34949 whole entry): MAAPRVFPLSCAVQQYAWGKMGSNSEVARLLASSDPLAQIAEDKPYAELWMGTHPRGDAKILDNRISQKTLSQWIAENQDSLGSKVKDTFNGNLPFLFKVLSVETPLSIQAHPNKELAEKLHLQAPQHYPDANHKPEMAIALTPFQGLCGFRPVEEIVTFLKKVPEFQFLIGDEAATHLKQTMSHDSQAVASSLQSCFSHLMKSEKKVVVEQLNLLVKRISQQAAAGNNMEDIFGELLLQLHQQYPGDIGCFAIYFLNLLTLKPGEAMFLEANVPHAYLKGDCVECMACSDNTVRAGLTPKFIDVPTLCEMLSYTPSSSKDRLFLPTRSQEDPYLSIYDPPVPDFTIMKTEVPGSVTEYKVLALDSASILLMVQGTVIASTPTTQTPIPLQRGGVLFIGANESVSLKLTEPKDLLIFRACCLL
# SUMO-activating enzyme = SUMO-activating enzyme (Homo sapiens, UniProt Q9UBT2); experiment: SUMOylation inhibitor hit validation, confirmation, SUMOylation inhibitor project, biochemical, AlphaScreen (AID 2018); assay type: functional
# [25] = molecular target: DNA (cytosine-5)-methyltransferase 1 (Homo sapiens, UniProt P26358); experiment: DNMT1 methyltransferase inhibitors, confirmation, biochemical, fluorescent molecular beacon (AID 602386); assay type: functional
# Hexokinase HKDC1 = Hexokinase HKDC1 (Homo sapiens, UniProt Q2TB90); experiment: HKDC1 hexokinase inhibitors, dose response, biochemical, W721R variant (AID 504729); assay type: functional
# [26] = molecular target: T4, Alkaline phosphatase, tissue-nonspecific isozyme
# T1 sequence (P41145 whole entry): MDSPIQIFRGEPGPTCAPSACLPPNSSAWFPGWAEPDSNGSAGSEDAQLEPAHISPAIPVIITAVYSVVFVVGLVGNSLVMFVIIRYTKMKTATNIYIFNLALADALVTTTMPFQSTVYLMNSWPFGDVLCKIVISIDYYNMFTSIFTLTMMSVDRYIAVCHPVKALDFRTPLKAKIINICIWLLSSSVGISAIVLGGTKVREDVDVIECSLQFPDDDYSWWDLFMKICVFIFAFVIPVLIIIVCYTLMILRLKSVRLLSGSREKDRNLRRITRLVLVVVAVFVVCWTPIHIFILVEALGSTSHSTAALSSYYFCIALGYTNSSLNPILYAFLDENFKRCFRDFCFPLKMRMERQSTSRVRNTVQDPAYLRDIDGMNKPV
# Chain of Beta-galactosidase (Q8VNN2 whole entry): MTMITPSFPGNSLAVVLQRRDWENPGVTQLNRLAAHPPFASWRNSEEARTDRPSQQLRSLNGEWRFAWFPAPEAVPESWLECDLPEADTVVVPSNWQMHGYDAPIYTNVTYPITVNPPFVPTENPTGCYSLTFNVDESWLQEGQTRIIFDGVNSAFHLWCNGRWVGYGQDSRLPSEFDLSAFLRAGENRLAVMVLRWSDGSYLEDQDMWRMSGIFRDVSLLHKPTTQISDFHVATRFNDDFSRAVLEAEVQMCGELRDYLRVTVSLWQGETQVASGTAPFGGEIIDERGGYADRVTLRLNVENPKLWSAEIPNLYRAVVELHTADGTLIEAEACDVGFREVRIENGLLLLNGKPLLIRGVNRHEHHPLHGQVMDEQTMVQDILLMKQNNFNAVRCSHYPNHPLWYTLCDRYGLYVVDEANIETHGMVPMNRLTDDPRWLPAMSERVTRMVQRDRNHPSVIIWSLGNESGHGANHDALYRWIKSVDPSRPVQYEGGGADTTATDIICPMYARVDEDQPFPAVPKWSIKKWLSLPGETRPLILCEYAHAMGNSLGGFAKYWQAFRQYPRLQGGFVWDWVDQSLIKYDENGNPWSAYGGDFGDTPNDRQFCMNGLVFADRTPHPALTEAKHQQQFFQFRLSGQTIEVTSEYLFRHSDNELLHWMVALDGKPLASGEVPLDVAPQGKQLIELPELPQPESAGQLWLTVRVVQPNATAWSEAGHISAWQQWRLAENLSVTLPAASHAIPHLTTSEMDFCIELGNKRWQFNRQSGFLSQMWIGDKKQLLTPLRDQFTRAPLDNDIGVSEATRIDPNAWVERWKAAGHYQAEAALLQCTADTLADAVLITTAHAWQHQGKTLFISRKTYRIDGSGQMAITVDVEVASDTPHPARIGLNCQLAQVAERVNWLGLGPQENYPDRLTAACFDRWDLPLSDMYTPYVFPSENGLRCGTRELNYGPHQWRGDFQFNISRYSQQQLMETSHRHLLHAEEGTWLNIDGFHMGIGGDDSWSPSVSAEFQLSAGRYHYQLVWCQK
# Chain of Eukaryotic translation initiation factor 4E (P63073 whole entry): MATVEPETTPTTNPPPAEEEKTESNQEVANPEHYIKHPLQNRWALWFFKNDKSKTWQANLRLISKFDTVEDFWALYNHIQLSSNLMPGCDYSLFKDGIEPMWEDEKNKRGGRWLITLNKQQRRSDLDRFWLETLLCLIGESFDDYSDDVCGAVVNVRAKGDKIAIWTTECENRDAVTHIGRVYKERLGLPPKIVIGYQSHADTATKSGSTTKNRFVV
# Chain of Peroxisome proliferator-activated receptor gamma/Nuclear receptor coactivator 2 (P37231 whole entry): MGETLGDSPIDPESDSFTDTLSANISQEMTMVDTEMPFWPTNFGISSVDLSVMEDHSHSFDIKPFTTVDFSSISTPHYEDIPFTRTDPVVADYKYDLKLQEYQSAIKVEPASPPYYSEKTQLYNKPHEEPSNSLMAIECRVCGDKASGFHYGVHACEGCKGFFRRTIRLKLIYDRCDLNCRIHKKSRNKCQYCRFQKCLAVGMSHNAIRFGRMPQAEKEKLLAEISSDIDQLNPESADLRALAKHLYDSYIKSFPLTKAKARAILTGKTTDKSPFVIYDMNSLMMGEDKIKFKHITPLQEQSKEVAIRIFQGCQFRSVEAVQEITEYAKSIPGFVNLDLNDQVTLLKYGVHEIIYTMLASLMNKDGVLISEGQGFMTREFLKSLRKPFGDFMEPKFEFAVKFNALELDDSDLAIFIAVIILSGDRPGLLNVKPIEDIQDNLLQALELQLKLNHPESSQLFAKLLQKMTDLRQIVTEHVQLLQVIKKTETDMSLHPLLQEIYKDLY
# Chain of Peroxisome proliferator-activated receptor gamma/Nuclear receptor coactivator 2 (Q15596 whole entry, further chain): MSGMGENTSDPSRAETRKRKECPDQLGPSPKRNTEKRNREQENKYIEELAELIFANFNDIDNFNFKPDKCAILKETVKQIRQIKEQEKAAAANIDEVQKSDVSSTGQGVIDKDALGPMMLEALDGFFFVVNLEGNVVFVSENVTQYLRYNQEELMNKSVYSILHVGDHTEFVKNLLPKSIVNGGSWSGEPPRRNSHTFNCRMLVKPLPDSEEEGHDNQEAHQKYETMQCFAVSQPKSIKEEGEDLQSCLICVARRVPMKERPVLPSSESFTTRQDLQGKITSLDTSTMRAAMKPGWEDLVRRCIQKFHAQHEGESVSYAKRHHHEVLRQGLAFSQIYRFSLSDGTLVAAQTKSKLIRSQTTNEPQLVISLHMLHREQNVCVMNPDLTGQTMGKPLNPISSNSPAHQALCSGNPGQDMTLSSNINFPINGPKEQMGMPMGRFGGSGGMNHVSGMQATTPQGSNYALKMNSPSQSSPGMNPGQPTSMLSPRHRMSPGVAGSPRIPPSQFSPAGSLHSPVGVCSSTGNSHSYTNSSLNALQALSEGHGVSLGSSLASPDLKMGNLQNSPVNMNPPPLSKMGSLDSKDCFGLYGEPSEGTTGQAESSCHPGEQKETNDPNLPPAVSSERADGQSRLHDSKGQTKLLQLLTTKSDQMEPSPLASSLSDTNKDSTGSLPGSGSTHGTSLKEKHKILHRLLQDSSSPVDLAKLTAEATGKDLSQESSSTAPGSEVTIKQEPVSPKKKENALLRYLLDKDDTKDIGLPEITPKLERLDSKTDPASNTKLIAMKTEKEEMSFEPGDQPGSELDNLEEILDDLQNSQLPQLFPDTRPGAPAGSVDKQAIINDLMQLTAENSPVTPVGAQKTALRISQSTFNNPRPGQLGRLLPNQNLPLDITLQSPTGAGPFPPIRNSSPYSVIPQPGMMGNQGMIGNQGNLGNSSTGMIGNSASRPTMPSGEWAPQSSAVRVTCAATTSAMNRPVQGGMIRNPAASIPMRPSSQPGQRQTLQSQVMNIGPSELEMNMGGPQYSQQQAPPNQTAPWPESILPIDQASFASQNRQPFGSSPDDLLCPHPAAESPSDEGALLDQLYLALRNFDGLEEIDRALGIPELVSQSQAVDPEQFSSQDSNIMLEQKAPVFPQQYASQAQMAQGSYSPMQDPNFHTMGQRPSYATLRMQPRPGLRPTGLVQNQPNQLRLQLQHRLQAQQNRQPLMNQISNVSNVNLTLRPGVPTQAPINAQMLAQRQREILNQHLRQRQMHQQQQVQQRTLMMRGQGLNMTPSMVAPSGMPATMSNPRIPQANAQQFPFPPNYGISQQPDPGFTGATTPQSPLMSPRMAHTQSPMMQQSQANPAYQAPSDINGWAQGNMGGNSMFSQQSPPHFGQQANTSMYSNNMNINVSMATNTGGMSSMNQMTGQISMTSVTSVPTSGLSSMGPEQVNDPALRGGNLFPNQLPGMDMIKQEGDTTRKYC
# Chain of Hexokinase HKDC1 (Q2TB90 whole entry): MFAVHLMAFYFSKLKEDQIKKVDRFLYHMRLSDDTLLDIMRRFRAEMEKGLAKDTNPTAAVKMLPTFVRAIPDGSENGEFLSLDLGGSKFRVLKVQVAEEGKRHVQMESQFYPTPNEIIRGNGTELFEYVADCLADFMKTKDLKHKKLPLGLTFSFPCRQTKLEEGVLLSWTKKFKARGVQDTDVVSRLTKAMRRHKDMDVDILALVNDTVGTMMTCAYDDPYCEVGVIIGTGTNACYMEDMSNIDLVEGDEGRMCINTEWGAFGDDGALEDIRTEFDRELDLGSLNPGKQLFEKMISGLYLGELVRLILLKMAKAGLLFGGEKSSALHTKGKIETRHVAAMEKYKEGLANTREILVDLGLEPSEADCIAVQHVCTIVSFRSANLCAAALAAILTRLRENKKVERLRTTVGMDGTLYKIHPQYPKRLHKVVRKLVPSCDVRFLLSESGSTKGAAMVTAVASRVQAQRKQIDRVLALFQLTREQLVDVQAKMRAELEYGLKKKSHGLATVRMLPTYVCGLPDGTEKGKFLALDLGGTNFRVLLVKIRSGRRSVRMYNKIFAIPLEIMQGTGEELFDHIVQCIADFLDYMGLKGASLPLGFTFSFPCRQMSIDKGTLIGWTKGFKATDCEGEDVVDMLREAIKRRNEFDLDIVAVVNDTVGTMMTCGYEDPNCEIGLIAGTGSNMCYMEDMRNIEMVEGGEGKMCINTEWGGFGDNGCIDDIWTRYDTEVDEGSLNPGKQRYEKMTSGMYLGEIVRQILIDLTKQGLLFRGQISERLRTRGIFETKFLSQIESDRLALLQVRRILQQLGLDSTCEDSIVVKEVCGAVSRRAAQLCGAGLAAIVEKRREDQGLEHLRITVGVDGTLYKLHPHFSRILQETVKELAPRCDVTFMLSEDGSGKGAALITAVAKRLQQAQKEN
# Chain of Intestinal-type alkaline phosphatase (Mus musculus, UniProt P24822) (P24822 whole entry): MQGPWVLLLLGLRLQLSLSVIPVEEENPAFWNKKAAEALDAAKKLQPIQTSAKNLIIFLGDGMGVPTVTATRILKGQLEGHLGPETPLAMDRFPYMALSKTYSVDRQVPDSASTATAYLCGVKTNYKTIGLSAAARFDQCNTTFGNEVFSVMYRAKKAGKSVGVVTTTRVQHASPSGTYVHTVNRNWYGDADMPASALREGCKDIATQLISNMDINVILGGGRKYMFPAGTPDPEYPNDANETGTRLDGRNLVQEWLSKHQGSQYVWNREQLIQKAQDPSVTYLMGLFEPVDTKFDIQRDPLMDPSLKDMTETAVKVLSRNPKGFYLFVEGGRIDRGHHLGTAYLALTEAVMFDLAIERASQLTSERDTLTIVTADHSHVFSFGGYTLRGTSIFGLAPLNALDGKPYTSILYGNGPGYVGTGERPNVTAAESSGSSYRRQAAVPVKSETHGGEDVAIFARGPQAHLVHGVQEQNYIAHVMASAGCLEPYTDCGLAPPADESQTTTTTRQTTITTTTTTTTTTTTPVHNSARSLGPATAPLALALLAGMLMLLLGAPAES
smiles,measurement,setting,value
CC1=NN(c2ccccc2)C(=O)/C1=C/C=C/c1ccc(N(C)C)cc1,CC50,[1],95.1 µM (active)
same,IC50,[2],8.28 µM (active)
same,IC50,Nonstructural protein 1,3.14 µM (active)
same,pIC50,[3],< 4.49
same,EC50,Beta-galactosidase,7.93 µM (active)
same,IC50,[4],> 80 µM (inactive)
CC(=O)NS(=O)(=O)c1ccc(NC(=O)C2C3C=CC(C3)C2C(=O)O)cc1 (configuration not stated),IC50,[5],> 79.4 µM (inactive)
same,IC50,[6],> 79.4 µM (inactive)
same,IC50,[7],> 79.4 µM (inactive)
COc1cccc(CNC(=O)CCNS(=O)(=O)c2ccc3[nH]c(=O)oc3c2)c1,IC50,[8],> 100 µM (inactive)
same,IC50,[9],63.2 µM (active)
same,IC50,[10],13.9 µM (active)
Cc1ccccc1NC(=O)c1ccc(Nc2c([N+](=O)[O-])cc([N+](=O)[O-])c3ccccc23)cc1,IC50,[2],9.63 µM (active)
same,EC50,[11],0.937 µM (active)
same,pIC50,[3],< 4.49
same,EC50,Beta-galactosidase,11.3 µM (active)
same,EC50,[12],> 60 µM (inconclusive)
O=c1oc2cc(O)c(Cl)cc2c2ccccc12,IC50,[13],> 39.8 µM (not active)
same,EC50,[14],> 79.4 µM (not active)
same,EC50,[15],> 79.4 µM (inactive)
same,IC50,[16],1.39 µM (active)
same,EC50,[17],3.81 µM (active)
CCOC(=O)c1ccc(NC(=O)CC2Sc3ncnn3C2=O)cc1 (configuration not stated),IC50,[18],61.8 µM (active)
same,IC50,[19],> 66 µM (inactive)
same,IC50,[20],> 66 µM (inactive)
O=C(CCN1C(=O)C2C3C=CC(C3)C2C1=O)Nc1ccccn1 (configuration not stated),IC50,[21],> 64 µM (inactive)
CCOc1ccc(C(=O)C2=C(O)C(=O)N(c3cc(C)on3)C2c2ccccc2OC)cc1 (configuration not stated),EC50,[14],> 79.4 µM (not active)
same,EC50,[15],> 79.4 µM (inactive)
same,EC50,[17],> 26.5 µM (not active)
same,IC50,[22],> 93.1 µM (not active)
CCN1c2ccccc2N(C)C1(C)c1ccccc1 (configuration not stated),IC50,[21],49.4 µM (inactive)
same,AC50,INS1,2.14 µM (active)
same,IC50,[23],9.19 µM (active)
same,IC50,[24],13.7 µM (active)
O=C(Nc1cccc2nsnc12)c1ccc(-c2ccc(Br)cc2)o1,IC50,SUMO-activating enzyme,9.92 µM (active)
Cc1ccc(N2C(=O)NC(=O)/C(=C\c3cc(C)n(-c4sc5c(c4C#N)CCCC5)c3C)C2=O)cc1,IC50,[25],11.1 µM (active)
same,IC50,Hexokinase HKDC1,14.1 µM (active)
Cc1cccc(C)c1Nc1nnc(SCc2cn3cccc(C)c3n2)s1,IC50,Hexokinase HKDC1,> 80 µM (inactive)
COc1ccc(CNC(=O)c2cc(-c3ccccc3O)[nH]n2)cc1,IC50,[5],> 79.4 µM (inactive)
same,IC50,[6],> 79.4 µM (inactive)
same,EC50,[26],> 100 µM (not active)
same,IC50,[7],> 79.4 µM (inactive)
